In the experiment the target is human TPH1 (Homo sapiens (Human), UniProt P17752). Briefly: Biochemical in vitro assay using fluorescence readout (TPH1 inhibition).
Where [1] appears, read: human TPH1, fluorescence readout.
The mark [2] stands for this setting: full length human TPH1, 40 μM L-tryptophan, 15° C., 60 minutes, fluorescence at 540 nm, mean if determined several times.

pIC50: −log10 of the molar value.

Sequence of human TPH1 (P17752 whole entry): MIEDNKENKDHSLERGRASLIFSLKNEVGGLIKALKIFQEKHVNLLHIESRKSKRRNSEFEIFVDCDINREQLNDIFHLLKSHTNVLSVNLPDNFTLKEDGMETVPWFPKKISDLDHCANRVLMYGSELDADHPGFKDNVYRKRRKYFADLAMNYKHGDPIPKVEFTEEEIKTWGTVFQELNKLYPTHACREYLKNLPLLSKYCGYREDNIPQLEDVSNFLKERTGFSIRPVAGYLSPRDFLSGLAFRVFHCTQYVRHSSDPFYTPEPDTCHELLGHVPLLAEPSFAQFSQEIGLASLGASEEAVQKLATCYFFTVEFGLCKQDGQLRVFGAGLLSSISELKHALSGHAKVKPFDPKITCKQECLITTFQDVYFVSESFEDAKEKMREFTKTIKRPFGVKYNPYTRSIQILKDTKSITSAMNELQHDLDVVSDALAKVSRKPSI

Under setting [1], `CCN(CC)C(=O)c1ccc(OCC(=O)N2CCc3nc4sc(C)nn4c3[C@@H]2c2sccc2F)c(Cl)n1` [Example 1.23.14, (R)-6-chloro-N,N-diethyl-5-(2-(5-(3-fluorothiophen-2-yl)-2-methyl-7,8-dihydro-[1,3,4]thiadiazolo[2′,3′:2,3]imidazo[4,5-c]pyridin-6(5H)-yl)-2-oxoethoxy)picolinamide] gave a pIC50 of 7.72.
The same measure, in the same setting: the value for `Cc1nn2c3c(nc2s1)CCN(C(=O)COc1ccc(Cl)cc1C)C3c1nc(-c2ccccc2)no1` (stereo not drawn) [Example 1.11.1, 2-(4-chloro-2-methylphenoxy)-1-(2-methyl-5-(3-phenyl-1,2,4-oxadiazol-5-yl)-7,8-dihydro-[1,3,4]thiadiazolo [2′,3′:2,3]imidazo[4,5-c]pyridin-6(5H)-yl)ethanone] was 7.46.
Under setting [1], `CCc1nc(C)ccc1OCC(=O)N1CCc2nc3sc(C)nn3c2C1c1ncc(C2CC2)cc1F` (stereo not drawn) [Example 1.14.2, 1-(5-(5-cyclopropyl-3-fluoropyridin-2-yl)-2-methyl-7,8-dihydro-[1,3,4]thiadiazolo[2′,3′:2,3]imidazo[4,5-c]pyridin-6(5H)-yl)-2-((2-ethyl-6-methylpyridin-3-yl)oxy)ethanone] showed a pIC50 of 8.22.
Still for that read-out and setting: the value for `CCc1nn2c3c(nc2s1)CCN(C(=O)COc1ccc(NS(C)(=O)=O)nc1Cl)C3c1ccc(Cl)cc1F` (stereo not drawn) [Example 3.1.1, N-(6-chloro-5-(2-(5-(4-chloro-2-fluorophenyl)-2-ethyl-7,8-dihydro-[1,3,4]thiadiazolo[2′,3′:2,3]imidazo[4,5-c]-pyridin-6(5H)-yl)-2-oxoethoxy)pyridin-2-yl)methanesulfonamide] was 7.89; that for `CCc1ncccc1OCC(=O)N1CCc2nc3sc(C)nn3c2C1c1nc(-c2ccccc2)no1` (stereo not drawn) [Example 1.11.2, 2-((2-ethylpyridin-3-yl)oxy)-1-(2-methyl-5-(3-phenyl-1,2,4-oxadiazol-5-yl)-7,8-dihydro-[1,3,4]thiadiazolo[2′,3′:2,3]imidazo[4,5-c]pyridin-6(5H)-yl)ethanone] was 6.85.
In the case of `Cc1nn2c3c(nc2s1)CCN(C(=O)COc1ccc(C(F)(F)F)cc1Cl)C3c1cnc(N(C)C)s1` (stereo not drawn) [Example 1.22.5, 2-(2-Chloro-4-(trifluoromethyl)phenoxy)-1-(5-(2-(dimethylamino)thiazol-5-yl)-2-methyl-7,8-dihydro-[1,3,4]thiadiazolo[2′,3′:2,3]imidazo[4,5-c]pyridin-6(5H)-yl)ethanone], under setting [2], the negative-log IC50 (pIC50) is 6.89.
For the compound `CS(=O)(=O)Nc1ccc(OCC(=O)N2CCc3nc4sc(CF)nn4c3C2c2ccc(Cl)cc2F)c(Cl)n1` (stereo not drawn) [Example 7.1.1, N-(6-chloro-5-(2-(5-(4-chloro-2-fluorophenyl)-2-(fluoromethyl)-7,8-dihydro-[1,3,4]thiadiazolo[2′,3′:2,3-]imidazo[4,5-c]pyridin-6(5H)-yl)-2-oxoethoxy)pyridin-2-yl)methanesulfonamide], the pIC50 under setting [1] is 8.10.
Turning to `CNC(=O)c1cc(F)c(C2c3c(nc4sc(C)nn34)CCN2C(=O)COc2ccc(C(F)(F)F)cc2Cl)s1` (stereo not drawn) [Example 1.25.2, 5-(6-(2-(2-chloro-4-(trifluoromethyl)phenoxy)acetyl)-2-methyl-5,6,7,8-tetrahydro-[1,3,4]thiadiazolo[2′,3′:2,3]imidazo[4,5-c]pyridin-5-yl)-4-fluoro-N-methylthiophene-2-carboxamide], the pIC50 under setting [1] was 8.00.
In the case of `CCn1nc(C(=O)OC)cc1OCC(=O)N1CCc2nc3sc(C)nn3c2C1c1sccc1F` (stereo not drawn) [Example 1.23.12, Methyl 1-ethyl-5-(2-(5-(3-fluorothiophen-2-yl)-2-methyl-7,8-dihydro-[1,3,4]thiadiazolo[2′,3′:2,3]imidazo[4,5-c]pyridin-6(5H)-yl)-2-oxoethoxy)-1H-pyrazole-3-carboxylate], the pIC50 under setting [1] was 6.58.
The same measure, in the same setting: the value for `Cc1nn2c3c(nc2s1)CCN(C(=O)COc1ccc(C(F)(F)F)cc1Cl)C3c1ccc(Cl)nc1F` (stereo not drawn) [Example 1.16.7, 1-(5-(6-chloro-2-fluoropyridin-3-yl)-2-methyl-7,8-dihydro-[1,3,4]thiadiazolo[2′,3′:2,3]imidazo[4,5-c]pyridin-6(5H)-yl)-2-(2-chloro-4-(trifluoromethyl)phenoxy)ethanone] was 8.30.
Take `Cc1nn2c3c(nc2s1)CCN(C(=O)COc1ccc(F)cc1Cl)C3c1ccc(C2CC2)cc1F` (stereo not drawn) [Example 1.6.2, 2-(2-chloro-4-fluorophenoxy)-1-(5-(4-cyclopropyl-2-fluorophenyl)-2-methyl-7,8-dihydro-[1,3,4]thiadiazolo [2′,3′:2,3]imidazo[4,5-c]pyridin-6(5H)-yl)ethanone]: under setting [1], the pIC50 was 8.00.
Same read-out and setting: the value for `CNS(=O)(=O)c1ccc(OCC(=O)N2CCc3nc4sc(C)nn4c3C2c2ccc(Cl)cc2F)c(Cl)n1` (stereo not drawn) [Example 1.4.60, 6-chloro-5-(2-(5-(4-chloro-2-fluorophenyl)-2-methyl-7,8-dihydro-[1,3,4]thiadiazolo[2′,3′:2,3]imidazo[4,5-c]pyridin-6(5H)-yl)-2-oxoethoxy)-N-methylpyridine-2-sulfonamide] was 7.44; that for `CCc1cc(F)ccc1OCC(=O)N1CCc2nc3sccn3c2C1c1ccc(OC)cc1F` (stereo not drawn) [Example 6.3.4, 2-(2-ethyl-4-fluorophenoxy)-1-(5-(2-fluoro-4-methoxyphenyl)-7,8-dihydrothiazolo[2′,3′:2,3]-imidazo[4,5-c]pyridin-6(5H)-yl)ethanone] was 8.10.
The same measure, in the same setting: the value for `Cc1nn2c3c(nc2s1)CCN(C(=O)COc1c(F)cc(N2CCOCC2)nc1Cl)C3c1ncc(C2CC2)cc1F` (stereo not drawn) [Example 1.14.12, 2-((2-chloro-4-fluoro-6-morpholinopyridin-3-yl)oxy)-1-(5-(5-cyclopropyl-3-fluoropyridin-2-yl)-2-methyl-7,8-dihydro-[1,3,4]thiadiazolo[2′,3′:2,3]imidazo[4,5-c]pyridin-6(5H)-yl)ethanone] was 7.39; that for `O=C(COc1cccnc1Cl)N1CCc2nc3sccn3c2C1c1ccc(Cl)cc1F` (stereo not drawn) [Example 6.4.4, 1-(5-(4-chloro-2-fluorophenyl)-7,8-dihydrothiazolo-[2′,3′:2,3]imidazo[4,5-c]pyridin-6(5H)-yl)-2-((2-chloropyridin-3-yl)oxy)ethanone] was 7.89.
For the compound `Cc1nn2c3c(nc2s1)CCN(C(=O)COc1ccc(N2CCCC2=O)nc1Cl)C3c1ccc(Cl)cc1F` (stereo not drawn) [Example 1.4.17, 1-(6-Chloro-5-(2-(5-(4-chloro-2-fluorophenyl)-2-methyl-7,8-dihydro-[1,3,4]thiadiazolo[2′,3′:2,3]imidazo[4,5-c]pyridin-6(5H)-yl)-2-oxoethoxy)pyridin-2-yl)pyrrolidin-2-one], under setting [2], the pIC50 is 8.70.
Under setting [1], `Cc1ncc(OCC(=O)N2CCc3nc4sc(C)nn4c3C2c2ccc(Cl)cc2F)c(C)n1` (stereo not drawn) [Example 1.4.45, 1-(5-(4-chloro-2-fluorophenyl)-2-methyl-7,8-dihydro-[1,3,4]thiadiazolo[2′,3′:2,3]imidazo[4,5-c]pyridin-6(5H)-yl)-2-((2,4-dimethylpyrimidin-5-yl)oxy)ethanone] had a pIC50 of 7.01.
On the same count and under the same terms, the value for `Cc1nn2c3c(nc2s1)CCN(C(=O)COc1ccc(N2CCOCC2)nc1F)C3c1ncc(C2CC2)cc1F` (stereo not drawn) [Example 1.14.5, 1-(5-(5-cyclopropyl-3-fluoropyridin-2-yl)-2-methyl-7,8-dihydro-[1,3,4]thiadiazolo[2′,3′:2,3]imidazo[4,5-c]pyridine-6(5H)-yl)-2-((2-fluoro-6-morpholinopyridin-3-yl)oxy)ethanone] was 8.05.

One may read the pIC50 as −log10 of the IC50, conventionally taken in molar units. Lower therefore signals a high IC50.
